Data: patent US11718620B2, “Method for treating a cancer mediated by abnormality of multi-kinases” (TransThera Sciences (Nanjing), Inc., priority 2016, dated 2023)
Like-named read-outs stand apart in the source and are kept apart here.

Experiments:
[1] = biological target: T1, Aurora A (Homo sapiens, UniProt O14965); assay: Aurora A enzymatic activity test, FAM-labeled peptide, Caliper; type: biochemical; conditions: FAM-labeled peptide substrate, read-out: Kinase-inhibiting activity IC50 Aurora A
T1 sequence (O14965 1-403): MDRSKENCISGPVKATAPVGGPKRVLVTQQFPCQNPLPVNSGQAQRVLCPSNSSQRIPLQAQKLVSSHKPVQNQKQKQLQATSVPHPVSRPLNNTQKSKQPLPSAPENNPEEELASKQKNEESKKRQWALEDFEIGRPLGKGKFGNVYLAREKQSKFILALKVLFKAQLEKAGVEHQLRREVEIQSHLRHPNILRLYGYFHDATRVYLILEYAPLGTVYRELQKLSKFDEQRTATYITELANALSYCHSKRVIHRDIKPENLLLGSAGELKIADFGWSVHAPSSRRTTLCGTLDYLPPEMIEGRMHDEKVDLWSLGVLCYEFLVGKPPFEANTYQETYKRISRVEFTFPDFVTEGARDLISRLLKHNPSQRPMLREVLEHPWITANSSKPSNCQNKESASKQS
Procedure: (§1) Test samples: Compounds in the present invention (the sequence numbers and structures thereof are shown in Table 1), dilution concentration: 0.03 μM-3 μM, a total of 10 concentration gradients.
(§2) Test method: enzymatic activity tests of Aurora kinase (including Aurora A and Aurora B) and VEGFR2 (KDR) were performed using a multi-function microplate reader.
(§3) a) 96-well plates, 10 dose groups, 3-fold serial dilutions, each well was added with DMSO, maximal concentration of 500 μM (50-fold compound).
(§4) b) 384-well plates, diluted with 1× kinase buffer (50 mM HEPES, pH 7.5; 0.0015% Brij-35; 2 mM DTT), each well containing 5× compound dissolved in 5 μL of 10% DMSO. Each well of the negative control contains 5 μL of 1× kinase buffer containing 10% DMSO.
(§5) Aurora A, Aurora B and KDR were dissolved in 1× kinase buffer and prepared as a 2.5× enzyme solution. After the compound in various concentrations was reacted with 2.5× enzyme solution at room temperature for 10 min, the FAM-labeled peptide substrate and ATP were added to initiate reaction. After incubation for 40 minutes, 25 μL of terminal solution (100 mM HEPES, pH 7.5; 0.015% Brij-35; 0.2% Coating Reagent #3; 50 mM EDTA) was added to stop the reaction, and the final data were read by Caliper.

[2] = biological target: T2, Aurora B (Homo sapiens, UniProt Q96GD4); assay: Aurora B enzymatic activity test, FAM-labeled peptide, Caliper; type: biochemical; conditions: FAM-labeled peptide substrate, read-out: Kinase-inhibiting activity IC50 Aurora B
Procedure: as §1, §2, §3, §4, §5

[3] = biological target: T3, KDR(VEGFR2) (Homo sapiens, UniProt P35968); assay: KDR enzymatic activity test, FAM-labeled peptide, Caliper; type: biochemical; conditions: FAM-labeled peptide substrate, read-out: Kinase-inhibiting activity IC50 KDR(VEGFR2)
Procedure: as §1, §2, §3, §4, §5

[4] = biological target: T1, Aurora A; assay: Aurora A kinase activity test, [γ-33P]-ATP filter membrane; type: biochemical; conditions: 40 minutes at room temperature, read-out: Kinase-inhibiting activity IC50 Aurora A
Procedure: (§6) Test samples: compounds 1 to 4 in the present invention (the sequence numbers and structures thereof are shown in Table 1), dilution concentration: 0.03 μM-3 μM, a total of 10 concentration gradients.
as §2
(1) Test for Aurora a Kinase Activity:
Aurora A kinase protein and the compounds were sequentially added to the following reaction system: 8 mM MOPS pH 7.0, 0.2 mM EDTA, 200 μM LRRASLG (Kemptide), 10 mM magnesium acetate and [γ-^33P]-ATP (radioactive activity was approximately 500 cpm/pmol). Then the above reaction system was added with ATP to start the reaction, and incubated at room temperature for 40 minutes. Then the reaction was terminated by adding a 3% phosphoric acid solution. 10 μL was taken out from the reaction system, and then added dropwise to a P30 filtermat filter membrane, washed three times in 75 mM phosphoric acid solution for 5 minutes, and then washed once with methanol. After the filter membrane was dried, count was performed by a liquid crystal scintillation counter.

[5] = biological target: T2, Aurora B; assay: Aurora B kinase activity test, [γ-33P]-ATP filter membrane; type: biochemical; conditions: 40 minutes at room temperature, read-out: Kinase-inhibiting activity IC50 Aurora B
Procedure: as §6, §2
(2) Test for Aurora B Kinase Activity:
Aurora B kinase protein and the compounds were sequentially added to the following reaction system: 8 mM MOPS pH 7.0, 0.2 mM EDTA, 30 μM […], 10 mM magnesium acetate and [γ-^33P]-ATP (radioactive activity was approximately 500 cpm/pmol). Then the above reaction system was added with ATP to start the reaction, and incubated at room temperature for 40 minutes. Then the reaction was terminated by adding a 3% phosphoric acid solution. 10 μL was taken out from the reaction system, and then added dropwise to a P30 filtermat filter membrane, washed three times in 75 mM phosphoric acid solution for 5 minutes, and then washed once with methanol. After the filter was dried, count was performed by a liquid crystal scintillation counter.

[6] = biological target: T3, KDR(VEGFR2); assay: KDR kinase activity test, [γ-33P]-ATP filter membrane; type: biochemical; conditions: 40 minutes at room temperature, read-out: Kinase-inhibiting activity IC50 KDR (VEGFR2)
Procedure: as §6, §2
(3) Test for KDR Kinase Activity:
KDR kinase protein and the compounds were sequentially added to the following reaction system: 8 mM MOPS pH 7.0, 0.2 mM EDTA, 0.33 mg/mL myelin basic protein, 10 mM magnesium acetate and [γ-^33P]-ATP (radioactive activity was approximately 500 cpm/pmol). Then the above reaction system was added with ATP to start the reaction, and incubated at room temperature for 40 minutes. Then the reaction was terminated by adding a 3% phosphoric acid solution. 10 μL was taken out from the reaction system, and then added dropwise to a P30 filtermat filter membrane, washed three times in a 75 mM phosphoric acid solution for 5 minutes, and then washed once with methanol. After the filter was dried, count was performed by a liquid crystal scintillation counter.

[7] = system: A549 Lung cancer cells; assay: Cell proliferation, Cell Titer-Glo; type: cell-based; conditions: Homo sapiens, 72 hours, read-out: Cellular inhibitory activity IC50 A549
Procedure: (§7) Test method: The effect of compounds on cell proliferation of different cell lines was examined by Cell Titer-Glo method.
(§8) Each cell line was inoculated into a 96-well plate one day in advance, and after overnight incubation, drugs in different concentrations were added to a final concentration of 0-10000 nM, 3-5 folds dilution, for a total of 10 concentration points. After incubation for 72 hours, the mixture was added with Cell titer-Glo reagent equilibrated at room temperature, and shaken to incubation for 10 min, and then allowed to stand at room temperature for 2 min to stabilize the light signal. The multi-function microplate reader was used to read data from each well and analyze it.

[8] = system: BT-549 breast cancer cells; assay: Cell proliferation, Cell Titer-Glo; type: cell-based; conditions: Homo sapiens, 72 hours, read-out: Cellular inhibitory activity IC50 BT-549
Procedure: as §7, §8

[9] = system: D4475 breast cancer cells; assay: Cell proliferation, Cell Titer-Glo; type: cell-based; conditions: 72 hours, read-out: Cellular inhibitory activity IC50 D4475
Procedure: as §7, §8

[10] = system: MDA-MB-468 breast cancer cells; assay: Cell proliferation, Cell Titer-Glo; type: cell-based; conditions: Homo sapiens, 72 hours, read-out: Cellular inhibitory activity IC50 MDA-MB-468
Procedure: as §7, §8

[11] = system: human acute granulocytic leukemia Kasumi-1 cells xenograft; assay: In vivo pharmacodynamic study, subcutaneous xenograft tumor model; design: species or system CB17 SCID mice; conditions: for Tumor Weight: QD × 18, Kasumi-1 tumor-bearing mice; for Tumor Growth Inhibition rate (TGI): QD × 18, by tumor weight
Procedure: (§9) Test sample: crystal form I prepared in Example 17 (crystal form I of compound 29)
Animals, Cells, Reagents & Instruments: Kasumi-1 cells, derived from ATCC.
CB17 SCID mice, 6-8 weeks, female, available from Shanghai Lingchang Biotechnology Co., Ltd.
Kasumi-1 cells were cultured in vitro in a single layer, and culture conditions were as follows: RPMI1640 medium supplemented with 10% heat-inactivated fetal bovine serum and 1% penicillin-streptomycin double antibody, 37° C., and 5% CO2. Passage was achieved two to three times a week. When the cells were in the exponential growth phase, the cells were harvested, counted, and inoculated.
0.2 mL of cell suspension containing about 1×10^7 Kasumi-1 cells (cell suspended in 1:1 base RPMI 1640 medium and nutrient gel) was subcutaneously inoculated into the right back of female CB17 SCID mice. Grouping administration was started when the average tumor volume reached 100-150 mm^3. Grouping method: Animals were weighed prior to administration and tumor volume was measured. Grouping was performed according to the tumor volume, with 8 mice per group.
Health and death of the animals were monitored daily. Body weight was measured twice a week, and samples were collected after the last dose and the tumor weight was weighed.

[12] = PK evaluation in beagle dogs; type: in vivo
Procedure: as §9
(1) Administration to animals: All animals were fasted for more than 12 h before administration, and fed at 4 h after the administration. […] Beagle dogs were given intravenously 1 mg/kg of crystal form I of compound 29 (prescription: 10% DMA+20% (30% Solutol)+70% saline) in a single dose, and blood was collected at 0 h before administration and 0.083, 0.25, 0.50, 1.0, 2.0, 4.0, 6.0, 8.0, 12 and 24 h after administration. Beagle dogs were given orally 2 mg/kg of crystal form I of compound 29 (Prescription: 10% DMA+20% (30% Solutol)+70% saline) in a single dose, and blood was collected at 0 h before administration and at 0.25, 0.50, 1.0, 2.0, 4.0, 6.0, 8.0, 12, and 24 h after administration, and 200 μL blood was taken through a small saphenous vein, and placed in a dried EDTA-K2 test tube. (2) Preparation of plasma: The whole blood sample was separated by low-speed centrifugation (1800 g, 5 min, 4° C.) (the whole blood was collected and placed in an ice bath, and plasma separation should be completed within 30 min) to give plasma, and the separated plasma was stored in a refrigerator at […] for analysis.
The sample to be tested (−80° C.) was taken from the refrigerator, thawed naturally at room temperature and vortexed for 5 min; 20 μL of plasma sample was accurately aspirated into a 1.5 mL centrifuge tube; added with 200 μL of internal standard working solution at a concentration of 50 ng/mL, and mixed well; after vortexed for 5 min, the mixture was centrifuged for 5 min (12000 rpm); 50 μL of supernatant was accurately aspirated into 96-well plates pre-filled with 150 μL/well of water; vortexed for 5 min, LC-MS/MS determination was performed in an injection volume of 15 μL.
The concentration of test sample was output using Analyst 1.6.1 from AB SCIEX.

[13] = intravenously 1 mg/kg single dose

T3 sequence (P35968 20-1356): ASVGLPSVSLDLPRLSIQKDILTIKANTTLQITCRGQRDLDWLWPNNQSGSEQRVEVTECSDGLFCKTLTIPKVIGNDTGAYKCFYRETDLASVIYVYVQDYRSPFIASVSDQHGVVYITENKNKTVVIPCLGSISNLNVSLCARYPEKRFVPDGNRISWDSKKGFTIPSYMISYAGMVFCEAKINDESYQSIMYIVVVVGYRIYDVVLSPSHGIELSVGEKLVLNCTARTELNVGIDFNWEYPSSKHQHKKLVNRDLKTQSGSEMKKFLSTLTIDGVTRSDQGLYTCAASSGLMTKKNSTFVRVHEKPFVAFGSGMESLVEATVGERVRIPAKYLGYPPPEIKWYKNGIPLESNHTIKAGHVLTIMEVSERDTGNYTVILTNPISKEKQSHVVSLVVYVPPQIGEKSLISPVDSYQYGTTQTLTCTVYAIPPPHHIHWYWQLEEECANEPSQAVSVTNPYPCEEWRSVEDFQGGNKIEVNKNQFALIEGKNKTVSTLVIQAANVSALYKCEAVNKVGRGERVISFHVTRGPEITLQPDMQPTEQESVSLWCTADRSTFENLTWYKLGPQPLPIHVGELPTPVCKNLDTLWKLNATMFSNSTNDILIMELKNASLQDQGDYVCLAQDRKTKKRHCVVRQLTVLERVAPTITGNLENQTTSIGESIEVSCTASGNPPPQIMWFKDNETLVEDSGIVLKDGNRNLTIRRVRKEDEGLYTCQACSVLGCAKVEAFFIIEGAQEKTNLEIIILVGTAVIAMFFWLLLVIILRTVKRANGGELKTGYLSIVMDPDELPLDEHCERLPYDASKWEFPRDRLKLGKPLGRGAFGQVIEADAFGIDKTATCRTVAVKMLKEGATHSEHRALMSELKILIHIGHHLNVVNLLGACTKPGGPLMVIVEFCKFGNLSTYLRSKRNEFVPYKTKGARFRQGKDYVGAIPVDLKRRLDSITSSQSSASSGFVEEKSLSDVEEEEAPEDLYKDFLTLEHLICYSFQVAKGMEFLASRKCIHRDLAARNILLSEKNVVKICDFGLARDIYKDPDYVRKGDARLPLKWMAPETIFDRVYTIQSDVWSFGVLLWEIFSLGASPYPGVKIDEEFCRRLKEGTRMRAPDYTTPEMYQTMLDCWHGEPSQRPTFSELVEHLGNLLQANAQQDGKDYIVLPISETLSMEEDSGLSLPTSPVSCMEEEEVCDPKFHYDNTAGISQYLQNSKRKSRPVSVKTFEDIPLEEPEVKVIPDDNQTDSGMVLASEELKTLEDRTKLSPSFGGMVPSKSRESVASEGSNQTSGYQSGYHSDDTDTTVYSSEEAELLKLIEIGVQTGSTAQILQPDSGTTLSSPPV
T2 sequence (Q96GD4 whole entry): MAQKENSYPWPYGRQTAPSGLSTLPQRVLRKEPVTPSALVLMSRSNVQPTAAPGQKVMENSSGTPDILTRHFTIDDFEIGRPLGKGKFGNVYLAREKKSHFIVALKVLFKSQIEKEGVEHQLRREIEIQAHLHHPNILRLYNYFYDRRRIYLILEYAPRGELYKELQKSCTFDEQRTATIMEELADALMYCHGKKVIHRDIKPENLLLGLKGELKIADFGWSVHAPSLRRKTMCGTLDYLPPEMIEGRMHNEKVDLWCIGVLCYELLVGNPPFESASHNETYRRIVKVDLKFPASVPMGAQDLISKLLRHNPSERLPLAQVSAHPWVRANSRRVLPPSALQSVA

| Compound | IC50 [1] [nM] | IC50 [2] [nM] | IC50 [3] [nM] | also measured |
| --- | --- | --- | --- | --- |
| Cc1[nH]nc2c1N=C(c1ccccc1Cl)c1cnc(N3CCO[C@H](C)C3)cc1N2 (stereo in doubt) [Compound 40] | 2.7 | 11 | 2.9 | – |
| Cc1[nH]nc2c1N=C(c1ccccc1Cl)c1cnc(S(C)(=O)=O)cc1N2 [Compound 1] | – | – | – | IC50 [4]: 12 nM; IC50 [5]: 30 nM; IC50 [6]: 1660 nM |
| Cc1[nH]nc2c1N=C(c1ccccc1Cl)c1cnc(C3CC3)cc1N2 [Compound 2] | – | – | – | IC50 [4]: < 3 nM; IC50 [5]: 4 nM; IC50 [6]: 593 nM |
| Cc1[nH]nc2c1N=C(c1ccccc1Cl)c1cnc(N3CCNCC3)cc1N2 [Compound 37] | 5.4 | 8.8 | 1.7 | – |
| Cc1[nH]nc2c1N=C(c1ccccc1Cl)c1cnc(CN3CCNCC3)cc1N2 [Compound 38] | 18 | 16 | 4.2 | – |
| Cc1[nH]nc2c1N=C(c1ccccc1Cl)c1cnc(N3C[C@@H](C)N(C)[C@@H](C)C3)cc1N2 [Compound 41] | 15 | 24 | 7.9 | – |
| Cc1[nH]nc2c1N=C(c1ccccc1Cl)c1cnc(N3CCN(C)[C@H](C)C3)cc1N2 [Compound 42] | 3 | 1.7 | 9.7 | – |
| Cc1[nH]nc2c1N=C(c1ccccc1Cl)c1cnc(N3CCN(C)C(=O)C3)cc1N2 [Compound 43] | 2.1 | 5.8 | 1.8 | – |
| Cc1[nH]nc2c1N=C(c1ccccc1Cl)c1cnc(N3CCN(C4CC4)CC3)cc1N2 [Compound 44] | 0.82 | 6.8 | 1.5 | IC50 [7]: 358 nM; IC50 [8]: 249 nM; IC50 [9]: 101 nM; IC50 [10]: 984 nM |
| Cc1[nH]nc2c1N=C(c1ccccc1Cl)c1cnc(N3CC4CC3CO4)cc1N2 (stereo not drawn) [Compound 45] | 1 | 4.7 | 0.3 | IC50 [7]: 507 nM; IC50 [8]: 186 nM; IC50 [9]: 171 nM; IC50 [10]: 491 nM |
| Cc1[nH]nc2c1N=C(c1ccccc1Cl)c1cnc(N3CC4COCC4C3)cc1N2 (stereo not drawn) [Compound 46] | 0.41 | 3.1 | 0.53 | IC50 [7]: 211 nM; IC50 [8]: 83 nM; IC50 [9]: 48 nM; IC50 [10]: 319 nM |
| Cc1[nH]nc2c1N=C(c1ccccc1Cl)c1cnc(N3CC4(COC4)C3)cc1N2 [Compound 48] | 1.4 | 5.2 | 1.8 | – |
| Cc1[nH]nc2c1N=C(c1ccccc1Cl)c1cnc(N3CCOCC3)cc1N2 [Crystal form I of compound 29, 4-(5-(2-chlorophenyl)-3-methyl-2,10-dihydropyrazolo[4,3-b]pyrido[4,3-e][1,4]diazepin-8-yl) morpholine] | – | – | – | Tumor Weight ([11]; 5 mg/kg po): 0.435 ± 0.091 g; Tumor Growth Inhibition rate (TGI) ([11]; 5 mg/kg po): 69.58%; Tumor Weight ([11]; 15 mg/kg po): 0.100 ± 0.014 g; Tumor Growth Inhibition rate (TGI) ([11]; 15 mg/kg po): 92.98%; inhibitory effect on the Kasumi-1 cell xenograft model ([11]; result in words): significant inhibitory effect; AUC(0-inf) ([12]; dog, plasma, iv, intravenously 1 mg/kg single dose, read-out: AUCinf iv): 4650 ng·h/mL; Tmax ([12]; dog, plasma, po, orally 2 mg/kg single dose): 2 h; AUC(0-inf) ([12]; dog, plasma, po, orally 2 mg/kg single dose, read-out: AUCinf po): 8600 ng·h/mL; Cl_obs iv [12, 13]: 3.67 mL/min/kg; Vz_obs iv [12, 13]: 2.35 L/kg; tz1/2 iv [12, 13]: 7.64 h; tZl1/2po ([12]; orally 2 mg/kg single dose): 6.87 h |
